# Counter-ions that a name gives are not always drawn.
# Biological target: T1, ΔF508 mutant CFTR (Homo sapiens, UniProt P13569, DEL508-508)
# T1 construct: expressed in transfected cells; host or cells: Fischer rat thyroid (FRT) cells, co-expressing the halide-sensitive YFP-H148Q/I152L
# Test: Fluorescence Assay of ΔF508 mutant CFTR activity (halide-sensitive YFP quenching by iodide influx in FRT cells)
# Type: cell-based
# Parameters: key: fold of mean activity with forskolin alone (I− quenching rate)
# Settings: test compounds 20 μM with forskolin 20 μM, 20 min; FRT cells expressing ΔF508-CFTR and YFP-H148Q/I152L, incubated at 27° C. 20-24 h; rate of fluorescence quenching by I−, normalized to mean activity with forskolin alone
# Source text: The ΔF508 mutant CFTR activities of the CFTR modulators are detected using the Fluorescence Assay developed by Pedemonte (Pedemonte N., et al., Antihypertensive 1,4-dihydropyridines as correctors of the cystic fibrosis transmembrane conductance regulator channel gating defect caused by cystic fibrosis mutations, Mol. Pharmacol., 2005, 68, 1736-1746).
# Fischer rat thyroid (FRT) cells, stably transfected with ΔF508 were retransfected with the YFP-H148Q/I152L fluorescent protein. The cells were plated (100,000 cells/well) on black 96-well microplates with clear plastic bottom (Corning Life Sciences, Acton, Mass.).
# The 96-well microplates containing FRT cells expressing F508-CFTR and the halide-sensitive YFP were incubated at 27° C. for 20 to 24 h to allow rescue of the mutant protein to the plasma membrane. After incubation, cells were washed with PBS (containing 137 mM NaCl, 2.7 mM KCl, 8.1 mM Na2HPO4, 1.5 mM KH2PO4, 1 mM CaCl2, and 0.5 mM MgCl2) and stimulated for 20 min with forskolin (20 μM) and test compounds (20 μM) in a final volume of 60 μl. Microplates were then transferred to a microplate reader for CFTR activity determination. Each assay consisted of a continuous 14-s fluorescence reading (5 points per second) with 2 s before and 12 s after injection of 165 μl of an iodide-containing solution (PBS with Cl^− replaced by I^−). Final iodide concentration in the wells was 100 mM. […] To determine I^− influx rate, the final 11 s of the data for each well were fitted with an exponential function to extrapolate initial slope. CFTR activity was determined by measuring the rate of fluorescence quenching induced by extracellular addition of I^−. Data are normalized to the mean activity measured in the presence of forskolin alone.
# T1 sequence (P13569 with tags, fused parts or gaps DEL508-508): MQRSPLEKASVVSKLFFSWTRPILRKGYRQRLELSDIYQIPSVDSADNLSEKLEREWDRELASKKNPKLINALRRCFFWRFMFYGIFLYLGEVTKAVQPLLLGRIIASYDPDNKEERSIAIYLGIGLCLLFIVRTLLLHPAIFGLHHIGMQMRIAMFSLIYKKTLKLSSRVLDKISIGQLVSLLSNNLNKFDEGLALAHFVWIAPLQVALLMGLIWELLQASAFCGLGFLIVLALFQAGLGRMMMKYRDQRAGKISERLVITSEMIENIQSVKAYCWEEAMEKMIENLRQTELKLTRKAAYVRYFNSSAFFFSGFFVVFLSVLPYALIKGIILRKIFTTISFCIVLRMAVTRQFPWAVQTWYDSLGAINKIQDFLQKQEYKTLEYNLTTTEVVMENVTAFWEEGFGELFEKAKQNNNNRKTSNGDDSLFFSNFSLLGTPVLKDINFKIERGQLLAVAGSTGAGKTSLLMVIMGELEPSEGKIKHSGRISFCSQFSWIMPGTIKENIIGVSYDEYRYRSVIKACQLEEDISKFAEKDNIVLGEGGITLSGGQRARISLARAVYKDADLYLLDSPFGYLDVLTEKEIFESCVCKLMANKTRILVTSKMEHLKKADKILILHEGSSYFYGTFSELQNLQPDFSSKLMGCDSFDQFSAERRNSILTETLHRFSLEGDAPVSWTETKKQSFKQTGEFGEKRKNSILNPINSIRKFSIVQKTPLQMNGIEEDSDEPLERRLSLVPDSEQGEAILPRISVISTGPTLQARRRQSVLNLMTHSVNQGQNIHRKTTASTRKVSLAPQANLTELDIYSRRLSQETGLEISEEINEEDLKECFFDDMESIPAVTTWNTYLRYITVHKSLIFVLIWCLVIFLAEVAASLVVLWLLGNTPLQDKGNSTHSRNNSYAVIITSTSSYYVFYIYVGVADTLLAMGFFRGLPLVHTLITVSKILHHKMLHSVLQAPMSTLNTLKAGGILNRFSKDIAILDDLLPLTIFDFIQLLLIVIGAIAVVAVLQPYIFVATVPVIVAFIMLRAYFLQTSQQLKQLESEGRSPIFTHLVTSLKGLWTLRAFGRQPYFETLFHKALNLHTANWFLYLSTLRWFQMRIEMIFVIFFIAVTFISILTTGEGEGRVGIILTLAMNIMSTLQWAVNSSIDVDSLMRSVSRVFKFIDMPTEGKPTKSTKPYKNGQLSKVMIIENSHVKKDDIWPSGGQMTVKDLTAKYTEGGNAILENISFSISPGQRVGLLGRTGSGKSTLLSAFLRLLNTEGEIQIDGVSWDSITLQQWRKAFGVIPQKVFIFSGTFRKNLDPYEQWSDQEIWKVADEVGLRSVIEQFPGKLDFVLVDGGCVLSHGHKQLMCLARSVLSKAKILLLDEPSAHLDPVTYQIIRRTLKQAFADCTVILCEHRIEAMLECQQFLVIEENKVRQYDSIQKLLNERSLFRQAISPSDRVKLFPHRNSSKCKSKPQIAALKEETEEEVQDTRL
row,SMILES,CFTR Activity
1,"Cl.Nc1cc(F)c(-c2c(F)cccc2F)nc1C(=O)Nc1cnccc1OCC1CCNCC1 [Example 23, 3-amino-6-(2,6-difluorophenyl)-5-fluoro-N-(4-(piperidin-4-ylmethoxy)pyridin-3-yl)picolinamide hydrochloride]",2.5
2,"CNCCCCOc1ccncc1NC(=O)c1ccc(F)c(-c2c(F)cccc2F)n1.Cl [Example 16, 6-(2,6-difluorophenyl)-5-fluoro-N-(4-(4-(methylamino)butoxy)pyridin-3-yl)picolinamide hydrochloride]",0.6
3,"Cl.Nc1cc(C(F)(F)F)c(-c2c(F)cccc2F)nc1C(=O)Nc1cnccc1OCC1CCNCC1 [Example 49, 3-amino-6-(2,6-difluorophenyl)-N-(4-(piperidin-4-ylmethoxy)pyridin-3-yl)-5-(trifluoromethyl)picolinamide hydrochloride]",4.3
4,"Cl.NCCCCOc1ccncc1NC(=O)c1nc(-c2c(F)cccc2F)c(F)cc1N [Example 36, 3-amino-N-(4-(4-aminobutoxy)pyridin-3-yl)-6-(2,6-difluorophenyl)-5-fluoropicolinamide hydrochloride]",2.3
5,"Cl.Nc1cc(F)c(-c2c(F)cccc2F)nc1C(=O)Nc1cnccc1OC1CCNCC1 [Example 25, 3-amino-6-(2,6-difluorophenyl)-5-fluoro-N-(4-(piperidin-4-yloxy)pyridin-3-yl)picolinamide hydrochloride]",3.2
6,"Cl.Nc1cc(F)c(-c2c(F)cccc2F)nc1C(=O)Nc1cnccc1OC1CCCNCC1 (stereo not drawn) [Example 26, 3-amino-N-(4-(azepan-4-yloxy)pyridin-3-yl)-6-(2,6-difluorophenyl)-5-fluoropicolinamide hydrochloride]",4.3
7,"Cl.Nc1cc(C(F)(F)F)c(-c2c(F)cccc2F)nc1C(=O)Nc1cnccc1OCC1CNC1 [Example 50, 3-amino-N-(4-(azetidin-3-ylmethoxy)pyridin-3-yl)-6-(2,6-difluorophenyl)-5-(trifluoromethyl)picolinamide hydrochloride]",2.7
8,"Cl.O=C(Nc1cnccc1OC1CCNCC1)c1ccc(F)c(-c2ccncc2)n1 [Example 39, 3-fluoro-N-(4-(piperidin-4-yloxy)pyridin-3-yl)-[2,4′-bipyridine]-6-carboxamide hydrochloride]",1.0
9,"Cl.O=C(Nc1cnccc1OC1CCCNCC1)c1nc(-c2c(F)cccc2F)ccc1F (stereo not drawn) [Example 40, N-(4-(azepan-4-yloxy)pyridin-3-yl)-6-(2,6-difluorophenyl)-3-fluoropicolinamide hydrochloride]",1.8
10,"Cl.Nc1cc(C(F)(F)F)c(-c2c(F)cccc2F)nc1C(=O)Nc1cnccc1OC1CCCC(N)C1 (stereo not drawn) [Example 61, 3-amino-N-(4-((3-aminocyclohexyl)oxy)pyridin-3-yl)-6-(2,6-difluorophenyl)-5-(trifluoromethyl)picolinamide hydrochloride]",6.1
11,"Cl.Nc1cc(C(F)(F)F)c(-c2c(F)cccc2F)nc1C(=O)Nc1cnccc1OC1CCNCC1 [Example 51, 3-amino-6-(2,6-difluorophenyl)-N-(4-(piperidin-4-yloxy)pyridin-3-yl)-5-(trifluoromethyl)picolinamide hydrochloride]",4.8
12,"O=C(Nc1cnccc1OCCC(O)CO)c1ccc(F)c(-c2c(F)cccc2F)n1 (stereo not drawn) [Example 21, 6-(2,6-difluorophenyl)-N-(4-(3,4-dihydroxybutoxy)pyridin-3-yl)-5-fluoropicolinamide]",0.1

# Next, values leading:
row,CFTR Activity,SMILES
1,2.1,"Cl.NCC(CCl)Oc1ccncc1NC(=O)c1nc(-c2c(F)cccc2F)c(F)cc1N (stereo not drawn) [Example 33, 3-amino-N-(4-((1-amino-3-chloropropan-2-yl)oxy)pyridin-3-yl)-6-(2,6-difluorophenyl)-5-fluoropicolinamide hydrochloride]"
2,2.6,"Cl.NCC(CO)COc1ccncc1NC(=O)c1ccc(C(F)(F)F)c(-c2c(F)cccc2F)n1 (stereo not drawn) [Example 58, N-(4-(3-amino-2-(hydroxymethyl)propoxy)pyridin-3-yl)-6-(2,6-difluorophenyl)-5-(trifluoromethyl)picolinamide hydrochloride]"
3,1.9,"Cl.O=C(Nc1cnccc1OC1CCCNCC1)c1ccc(F)c(-c2c(F)cccc2F)n1 (stereo not drawn) [Example 6, N-(4-(azepan-4-yloxy)pyridin-3-yl)-6-(2,6-difluorophenyl)-5-fluoropicolinamide hydrochloride]"
4,0.7,"Cl.NCCCOc1ccncc1NC(=O)c1ccc(F)c(-c2c(F)cccc2F)n1 [Example 12, N-(4-(3-aminopropoxy)pyridin-3-yl)-6-(2,6-difluorophenyl)-5-fluoropicolinamide hydrochloride]"
5,0.4,"O=C(Nc1cnccc1OCC1CCOCC1)c1ccc(C(F)(F)F)c(-c2c(F)cccc2F)n1 [Example 47, 6-(2,6-difluorophenyl)-N-(4-((tetrahydro-2H-pyran-4-yl)methoxy)pyridin-3-yl)-5-(trifluoromethyl)picolinamide]"
6,1.6,"Cl.O=C(Nc1cnccc1OC1CCNCC1)c1ccc(F)c(-c2c(F)cccc2F)n1 [Example 3, 6-(2,6-difluorophenyl)-5-fluoro-N-(4-(piperidin-4-yloxy)pyridin-3-yl)picolinamide hydrochloride]"
7,2.1,"Cl.NCC(CO)COc1ccncc1NC(=O)c1nc(-c2c(F)cccc2F)c(F)cc1N (stereo not drawn) [Example 57, 3-amino-N-(4-(3-amino-2-(hydroxymethyl)propoxy)pyridin-3-yl)-6-(2,6-difluorophenyl)-5-fluoropicolinamide hydrochloride]"
8,0.5,"Cl.O=C(Nc1cnccc1OC1CCCNC1)c1ccc(F)c(-c2c(F)cccc2F)n1 (stereo not drawn) [Example 5, 6-(2,6-difluorophenyl)-5-fluoro-N-(4-(piperidin-3-yloxy)pyridin-3-yl)picolinamide hydrochloride]"
9,3.1,"Cl.NCC(CO)COc1ccncc1NC(=O)c1nc(-c2c(F)cccc2F)c(C(F)(F)F)cc1N (stereo not drawn) [Example 59, 3-amino-N-(4-(3-amino-2-(hydroxymethyl)propoxy)pyridin-3-yl)-6-(2,6-difluorophenyl)-5-(trifluoromethyl)picolinamide hydrochloride]"
10,2.7,"Cl.O=C(Nc1cnccc1OC1CCCNCC1)c1ccc(C(F)(F)F)c(-c2c(F)cccc2F)n1 (stereo not drawn) [Example 42, N-(4-(azepan-4-yloxy)pyridin-3-yl)-6-(2,6-difluorophenyl)-5-(trifluoromethyl)picolinamide hydrochloride]"
11,2.1,"Cl.Nc1cc(F)c(-c2c(F)cccc2F)nc1C(=O)Nc1cnccc1OCC1CCCNC1 (stereo not drawn) [Example 35, 3-amino-6-(2,6-difluorophenyl)-5-fluoro-N-(4-(piperidin-3-ylmethoxy)pyridin-3-yl)picolinamide hydrochloride]"
12,0.6,"CNCCCOc1ccncc1NC(=O)c1ccc(F)c(-c2c(F)cccc2F)n1.Cl [Example 13, 6-(2,6-difluorophenyl)-5-fluoro-N-(4-(3-(methylamino)propoxy)pyridin-3-yl)picolinamide hydrochloride]"
13,0.2,"O=C(Nc1cnccc1OCCCO)c1ccc(F)c(-c2c(F)cccc2F)n1 [Example 17, 6-(2,6-difluorophenyl)-5-fluoro-N-(4-(3-hydroxypropoxy)pyridin-3-yl)picolinamide]"
14,1.8,"NCC(CCl)Oc1ccncc1NC(=O)c1ccc(F)c(-c2c(F)cccc2F)n1 (stereo not drawn) [Example 29, N-(4-((1-amino-3-chloropropan-2-yl)oxy)pyridin-5-yl)-6-(2,6-difluorophenyl)-5-fluoropicolinamide hydrochloride]"
15,0.8,"Cl.O=C(Nc1cnccc1OCC1CCCNC1)c1ccc(F)c(-c2c(F)cccc2F)n1 (stereo not drawn) [Example 7, 6-(2,6-difluorophenyl)-5-fluoro-N-(4-(piperidin-3-ylmethoxy)pyridin-3-yl)picolinamide hydrochloride]"
16,1.2,"Cl.Nc1cc(F)c(-c2c(F)cccc2F)nc1C(=O)Nc1cnccc1OCC1CNC1 [Example 32, 3-amino-N-(4-(azetidin-3-ylmethoxy)pyridin-3-yl)-6-(2,6-difluorophenyl)-5-fluoropicolinamide hydrochloride]"
17,2.2,"Cl.Nc1cc(F)c(-c2c(F)cccc2F)nc1C(=O)Nc1cnccc1OCC1CCNC1 (stereo not drawn) [Example 28, 3-amino-6-(2,6-difluorophenyl)-5-fluoro-N-(4-(pyrrolidin-3-ylmethoxy)pyridin-3-yl)picolinamide hydrochloride]"
18,5.7,"Cl.NC1CCCC(Oc2ccncc2NC(=O)c2ccc(C(F)(F)F)c(-c3c(F)cccc3F)n2)C1 (stereo not drawn) [Example 60, N-(4-((3-aminocyclohexyl)oxy)pyridin-3-yl)-6-(2,6-difluorophenyl)-5-(trifluoromethyl)picolinamide hydrochloride]"

# — patent publication US10174002B2, “Pyridine derivatives as CFTR modulators” (NuBridge BioSciences, priority 2015, dated 2019)
